# Patent US11155821B2, “Compositions and methods for tagging ribonucleic acids” (The Regents of the University of Colorado, a body corporate, priority 2018, dated 2021)
# Assays:
# [1] = test system: RNA AT,MUT (four point mutations in the Cbl-binding site); test: In vitro fluorescence turn-on, plate reader, aptamer AT,MUT; type: biochemical; details: probe 0.25 or 0.5 μM, RNA at least 5 μM
# Experimental: (§1) The concentration of Cbl-fluorophore probes, free fluorophores and free Cbl was determined using extinction coefficients listed in Table 1B. In vitro experiments were conducted in RNA buffer (100 mM KCl, 10 mM NaCl, 1 mM MgCl2, 50 mM HEPES, pH 8.0). For the Cbl-fluorophore probes, the extinction coefficient of the fluorophores was used to determine the concentration. […] The fluorescence intensity of each probe was measured in the presence or absence of RNA in RNA buffer as technical triplicates in a Tecan Safire-II fluorescence plate. […] Samples were incubated for at least 20 minutes (min) at room temperature in the dark to allow for Cbl-binding of the RNA prior to data collection. The excitation wavelength for each probe is listed in Table 1B and the emission spectrum was collected in 1 nm increments for the range listed in Table 1B. Each emission spectrum was buffer subtracted, integrated and normalized to the signal of the free fluorophore at the same concentration. Resulting % fluorescence measurements were reproducible for measurements on different days.
# RNA AT = test: In vitro fluorescence turn-on, plate reader, aptamer AT; type: biochemical; details: probe 0.25 or 0.5 μM, RNA at least 5 μM
# Experimental: as §1
# [2] = target: Cbl riboswitch RNA variant A (wild type env8); test: Isothermal titration calorimetry (ITC), aptamer A; type: binding; details: ITC at 25° C., RNA buffer; mean of 3 independent experiments +/- STDEV
# Experimental: (§2) ITC experiments were performed using protocols previously established and described [reference 30, 31]. Briefly, the RNA was dialyzed overnight at 4° C. into RNA buffer (100 mM KCl, 10 mM NaCl, 1 mM MgCl2, 50 mM HEPES, pH 8.0) using 6-8000 Dalton molecular weight cutoff dialysis tubing (Spectra/Por). The dialysis buffer was used to dissolve Cbl and Cbl-5xPEG-ATTO590, and to dilute RNA To the desired concentration. Titrations were performed at 25° C. using a MicroCal ITC 200 microcalorimeter (GE Healthcare) and data were fit using the Origin software suite as previously described [reference 61].
# [3] = target: truncated Cbl riboswitch RNA variant AT; test: Isothermal titration calorimetry (ITC), aptamer AT; type: binding; details: ITC at 25° C., RNA buffer; mean of 3 independent experiments +/- STDEV
# Experimental: as §2
# [4] = target: Cbl riboswitch RNA variant D; test: Isothermal titration calorimetry (ITC), aptamer D; type: binding; details: ITC at 25° C., RNA buffer; mean of 3 independent experiments +/- STDEV
# Experimental: as §2
# [5] = test system: SM-KDM5B translation reporter tagged with 12 copies of Riboglow; test: Translation assay, live U2-OS cells; type: cell-based
# Experimental: U2-OS cells seeded on home-made imaging dishes as described above were bead loaded with a mix of 1 μg plasmid DNA encoding for the SM-KDM5B translation reporter, 3 μL of a 5 μM stock of the Cbl-fluorophore probe Cbl-4xGly-ATTO 590 and 1 μL of Alexa488-labeled Fab to bind N-terminal FLAG tags in the reporter. After 6-8 hours, cells were washed 3 times with PBS, and medium was replaced with FluoroBrite medium (Gibco). Imaging was performed under HILO conditions [reference 49] at 37° C. and 5% CO2 using an Andor Ixon Ultra DU897U-C50 EMCCD camera. When indicated, puromycin was added during the image acquisition at a final concentration of 50 μg/mL.
# Broccoli = test: Photobleaching of RNA/probe complexes, constant illumination, Broccoli; type: physicochemical; details: bound to Broccoli, within a second
# Experimental: For photobleaching experiments, indicated probes and RNA (Table 10) were mixed before about 3 to 4× of microscope immersion oil (Olympus immersion oil type-F) was added and the solution was emulsified to generate droplets. Samples were prepared in RNA buffer for Cbl-fluorophore samples (100 mM KCl, 10 mM NaCl, 1 mM MgCl2, 50 mM HEPES, pH 8.0) and in Broccoli buffer (40 mM HEPES pH 7.4, 100 mM KCl, 1 mM MgCl2) for the DFHBI-1T/Broccoli sample. The droplets were sandwiched between a glass slide and a coverslip. The sample was placed on the sample stage of a Nikon Ti-E HCA widefield fluorescence microscope with the coverslip facing a 20× objective lens. Photostability was assessed in part by fixing the excitation rate, i.e. the number of absorbed excitation photons were the same for Cbl-fluorophore/RNA samples and the DFHBI-1T/Broccoli sample. The high irradiance for the DFHBI-1T Broccoli sample is a result of its low extinction coefficient. Images were acquired every 50 ms for DFHBI-1T/Broccoli and every 250 ms for others for 3 seconds, then every second for 47 seconds or longer, and the exposure time of each image was 15 ms for DFHBI-1T/Broccoli and 40 ms for others. A total of 6 to 15 droplets were analyzed for each sample.
# ACTB-(2xdBroccoli) mRNA = test: Stress granule (SG) assay, live U2-OS Halo-G3BP1 cells, Broccoli tag; type: cell-based, Homo sapiens; details: arsenite
# Experimental: U2-OS cells stably producing GFP-G3BP1 or genomically producing Halo-G3BP1 were seeded at 0.25×10^6 cells in imaging dishes. One day after seeding, cells were chemically transfected with typically 2-μg plasmid DNA (1 μg of the ACTB plasmid fused with an RNA tag of interest mixed with 1 μg of the transfection marker pNLS-TagBFP (in pcDNA)) using the TransIT transfection system following manufacturer recommendations (Mirus). On the next day, cells were stained and bead loaded with the Cbl-fluorophore probe as described above. The media that was added after bead loading contained 0.5 mM sodium arsenite and cells were incubated at 37° C./5% CO 2 for 30-45 min to induce stress granules. Cells were rinsed once in PBS and Fluorobrite media (Gibco), supplemented with 0.5 mM sodium arsenite, was added for live cell imaging. For correlative live/fixed imaging where cells were first imaged live, followed by fixation and FISH/immunofluorescence imaging of the same cells, the following modifications were made to the protocol above. Instead of home-made imaging dishes, gridded imaging dishes (MatTek) were used. Dishes were coated with 1 μg/mL fibronectin (Sigma) for 4 hours and fibronectin was rinsed once with full media before cells were seeded. Because plasmid ACTB-(AT) 4x was used, a higher concentration of Cbl-5xPEG-ATTO590 was bead loaded (3 μL of 50 μM probe).
# For live imaging of SGs tagged with 2xdBroccoli in U2-OS cells, the pinhole was 67.7 μm and the laser settings were as follows. For the DAPI channel, the laser was set at 5.0 (HV=110), for the GFP channel the laser was set at 1.0 (HV=110), for the TRITC channel the laser was set at 1.0 (HV=40). For live imaging of SGs tagged with MS2 stem-loop repeats in U2-OS cells, the pinhole was 67.7 μm and the laser settings were as follows. For the DAPI channel, the laser was set at 5.0 (HV=110), for the GFP channel the laser was adjusted for optimal contrast without detector saturation (approximately 1.0-2.5) (HV approximately 60-100), for the TRITC channel the laser was set at 0.9 (HV=40).
smiles,measurement,setting,value
C/C1=C2/[N-][C@H]([C@H](CC(N)=O)[C@@]2(C)CCC(=O)NC[C@@H](C)OP(=O)([O-])O[C@H]2[C@@H](O)[C@@H](n3cnc4cc(C)c(C)cc43)O[C@@H]2Cn2cc(CNC(=O)c3ccc4c(c3)C3(OC4=O)c4ccc(O)cc4Oc4cc(O)ccc43)nn2)[C@]2(C)N=C(/C(C)=C3N=C(/C=C4N=C1[C@@H](CCC(N)=O)C\4(C)C)[C@@H](CCC(N)=O)[C@]\3(C)CC(N)=O)[C@@H](CCC(N)=O)[C@]2(C)CC(N)=O.[C-]#N.[Co+3] [Cbl-FAM],Fold fluorescence turn-on,[1],0.5x
same,Fold fluorescence turn-on,RNA AT,2.5x
"C/C1=C2/N[C@H]([C@H](CC(N)=O)[C@@]2(C)CCC(=O)NC[C@@H](C)OP(=O)(O)O[C@H]2[C@@H](O)[C@@H](n3cnc4cc(C)c(C)cc43)O[C@@H]2CO)[C@]2(C)N=C(/C(C)=C3N=C(/C=C4N=C1[C@@H](CCC(N)=O)C\4(C)C)[C@@H](CCC(N)=O)[C@]\3(C)CC(N)=O)[C@@H](CCC(N)=O)[C@]2(C)CC(N)=O.[Co] [Cbl, cobalamin]",Kd,[2],37 ± 1 nM
same,Kd,[3],290 nM
same,Kd,[4],2.2 ± 1.6 nM
COc1ccc(C[C@H](N)C(=O)N[C@H]2[C@@H](O)[C@H](n3cnc4c(N(C)C)ncnc43)O[C@@H]2CO)cc1 [Puromycin],protein signal at translation sites,[5]; Puromycin added to cells with co-moving translation spots,rapid disappearance of the protein signal
same,mRNA spots colocalized with protein signal,"[5]; after Puromycin treatment, 50 μg/mL",30±12%
CC1=N/C(=C\c2cc(F)c(O)c(F)c2)C(=O)N1CC(F)(F)F [DFHBI-1T],fluorescence remaining after photobleaching,Broccoli,< 20%
same,cells with Halo-G3BP1 labeled SGs where no corresponding SGs in the green Broccoli channel were detectable,ACTB-(2xdBroccoli) mRNA,90%
same,total SGs detected in the green Broccoli channel,ACTB-(2xdBroccoli) mRNA,4%
same,transfected cells in which at least one SG was detected in the green channel,ACTB-(2xdBroccoli) mRNA,10%
